The source of these data is PMC5843810, “18th European Symposium on Radiopharmacy and Radiopharmaceuticals” (EJNMMI Radiopharmacy and Chemistry, 2016).

Read-outs that look alike come from different tables or passages of the source. Where a SMILES comes first, the peptide text is derived from it. Bridges are numbered along the chain shown (N, C = ends). [ ]: non-standard residue; d: D form. Ahx = NCCCCCC(=O)O; βAla = NCCC(=O)O

For series [1], the system named is human breast cancer cell lines. More on the design: method as in not given. Particulars: ref not given; cited from earlier work. The text has this:
Introduction: Substituted benzotiazoles (BT) are a class of compounds with high affinity and selectivity to aryl hydrocarbon receptor (AhR), a receptor often expressed in breast cancer tissue.

In another series the target is GRP receptors (Homo sapiens, UniProt P30550). The series is described as follows: GRP receptor affinity of PD-410. Type of series: binding. The text has this:
Introduction: The Gastrin Releasing Peptide (GRP) receptor has high expression on prostate cancer cells. Consequently, bombesin, a 14-amino acid peptide that binds with high affinity to GRP receptors, has been widely studied for the development of radiopeptides for application in prostate cancer imaging. To overcome some limitations of radiolabelled peptides, we developed a small molecule non-peptidic radiotracer targeting GRP receptors. […] The aim of the present study is to develop a non-peptidic fluorine-18 PET radioligand with antagonist properties, for visualization of GRP receptors.

The next series has as its target T1, MC1R (Mus musculus, UniProt Q01727).
T1 construct: endogenous in cells; host or cells: B16/F10
The series can be described thus: MC1R binding affinity in B16/F10 melanoma cells. The following applies: unlabelled peptides.

The conditions of series [2]: healthy Balb/c mice n=5, i.v., 1h p.i.
Procedure: The biodistribution of such prepared 68Ga-PSMA-11 was investigated in healthy Balb/c mice (n=5) after intravenous injection of 0.1mL (38 MBq/mL) (at 15, 30, 60 and 120min).
For series [3], the target named is T2, HDAC6 (Rattus norvegicus, UniProt A0A8I6GM68).
T2 construct: wild-type Wistar rat brain tissue; from tissue; host or cells: wild-type Wistar rat brain slices
The series is described as follows: Autoradiography on Wistar rat brain tissue. Type of series: binding. Particulars: rat brain slices, 100 μM. As to the method: (§1) The biodistribution was studied in NMRI-mice at 2, 10, 30 and 60 min (n = 3/time point) post injection (p.i.). Organs and tissues were harvested and radioactivity was counted in a gamma-counter. […] Slices were incubated with 18.5 MBq/400μL (brain) or 18.5 MBq/250 μL (tumor) of tracer with/without 100 μM of cold authentic reference compound (KB631) or non-structural related pan-HDAC inhibitor Suberoylanilide hydroxamic acid (SAHA).

Series [4] has as its target T3, HDAC6 (Homo sapiens, UniProt Q9UBN7).
T3 construct: wild-type Wistar rat brain tissue and PC3/LNCaP prostate tumor slices; from tissue; host or cells: PC3 and LNCaP prostate tumour slices (xenografts)
T3 sequence (Q9UBN7 1-1215): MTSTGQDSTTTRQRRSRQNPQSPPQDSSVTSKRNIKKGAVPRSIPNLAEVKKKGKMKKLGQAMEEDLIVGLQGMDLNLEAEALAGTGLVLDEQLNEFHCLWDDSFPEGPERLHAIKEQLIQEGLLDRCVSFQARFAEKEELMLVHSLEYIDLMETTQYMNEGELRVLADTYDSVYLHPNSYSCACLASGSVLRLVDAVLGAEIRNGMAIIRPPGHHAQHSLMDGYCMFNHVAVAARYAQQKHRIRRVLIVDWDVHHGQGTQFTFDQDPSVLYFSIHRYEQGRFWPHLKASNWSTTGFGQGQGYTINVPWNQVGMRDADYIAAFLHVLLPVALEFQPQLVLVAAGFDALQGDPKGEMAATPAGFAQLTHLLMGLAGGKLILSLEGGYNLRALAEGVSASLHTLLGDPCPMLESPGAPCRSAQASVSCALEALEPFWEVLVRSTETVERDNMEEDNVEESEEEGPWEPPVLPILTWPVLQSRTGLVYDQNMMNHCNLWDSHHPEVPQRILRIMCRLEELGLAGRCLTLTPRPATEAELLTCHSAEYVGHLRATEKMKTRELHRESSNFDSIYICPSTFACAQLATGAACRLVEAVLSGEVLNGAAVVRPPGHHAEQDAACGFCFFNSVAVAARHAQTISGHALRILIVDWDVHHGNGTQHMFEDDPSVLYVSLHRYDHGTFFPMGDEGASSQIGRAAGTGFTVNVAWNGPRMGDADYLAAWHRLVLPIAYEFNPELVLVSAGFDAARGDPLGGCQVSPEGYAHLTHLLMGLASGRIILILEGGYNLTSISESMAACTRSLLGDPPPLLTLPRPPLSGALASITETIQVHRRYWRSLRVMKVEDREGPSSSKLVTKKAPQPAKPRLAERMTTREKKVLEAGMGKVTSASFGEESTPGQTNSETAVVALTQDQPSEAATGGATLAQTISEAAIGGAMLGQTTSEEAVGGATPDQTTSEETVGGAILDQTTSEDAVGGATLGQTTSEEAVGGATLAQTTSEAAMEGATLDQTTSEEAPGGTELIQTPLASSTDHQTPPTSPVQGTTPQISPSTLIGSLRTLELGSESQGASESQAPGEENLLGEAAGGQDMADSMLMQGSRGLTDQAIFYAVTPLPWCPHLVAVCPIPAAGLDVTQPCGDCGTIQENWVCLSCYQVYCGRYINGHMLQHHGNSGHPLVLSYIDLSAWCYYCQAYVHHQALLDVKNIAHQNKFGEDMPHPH
The series can be described thus: Autoradiography on PC3/LNCaP prostate tumor slices. The following applies: 100 μM. Type of series: binding. As to the method: as §1

Series [5] in a line: PET/CT imaging in nude mice bearing U87MG xenograft tumor. Particulars: mouse, 90 min post injection. Type of series: in vivo. The protocol:
Materials and methods: The PET imaging properties of [^68Ga]FSC(succ-RGD)3 were studied in nude mice bearing M21 human melanoma xenografts and human glioblastoma U87MG xenograft tumor. A parallel PET imaging of ^68GaNODAGA-RGD in same mouse bearing U87MG xenograft tumor was performed as a comparison.

How the values of series [6] were obtained:
Methods: Labelling was carried out in a remote controlled synthesis unit under clean room conditions. Quality control included TLC, HPLC, GC, pH control, Ge-breakthrough, half-life, endotoxin content, and control of sterility. Storage stability after 4 h was studied and dose estimations based on animal data were carried out using OLINDA. Sprague-Dawley rats were used for an extended single dose toxicity study. The phase I clinical study included 9 patients with hepatocellular carcinoma (HCC). Static scans at 5, 30, and 60 min p.i. including 5 bed positions each were performed using the Discovery 690 PET/CT. Blood was sampled 30 and 60 min p.i. and urine 60 min p.i. and used for stability studies via HPLC.

The nature of series [7]: Extended single dose toxicity study in Sprague-Dawley rats. Type of series: in vivo.
The test system of another series is U87MG tumor. As to the method:
Materials and Methods: The radiolabelling was performed using an automated system with inline quality control. Fraction of 68GaCl3 eluate from an organic matrix based 68Ge/68Ga generator, 400-700 MBq in 2 mL, was used to label NOTA/NODAGA/DOTA-derivatised cRGD peptides. Elution, labeling and purification procedures were performed in 20-25 min. The biodistribution was tested in tumor bearing animal models (U87MG, Walker 256, B21 and AR42J). The affinity of cyclo-RGD peptides to tumor cell-surface receptors was determined by real-time quantification using Ligand Tracer.

For the next series, the system named is AR42J and U87MG. The series can be described thus: Real-time binding and retention on tumor cells (Ligand Tracer). Type of series: cell-based.
The nature of series [8]: Biodistribution and pharmacokinetics in healthy Balb/C mice. Type of series: in vivo. The protocol:
(§2) Material and methods: [^18F]Amylovis® was synthesized by nucleophilic substitution of the tosyl group of the precursor. Thirty five healthy male Balb/C mice of 10-12 weeks were divided into […] of 5 animals each and injected with similar doses of [^18F]Amylovis® through a lateral tail vein. Blood samples were collected and the animals were sacrificed at 5, 15, 30, 45, 70 and 180 minutes. Organs of interest were removed and washed with saline. Radioactivity of blood, plasma, urine, faeces, brain, cerebellum, heart, liver, stomach, spleen, bowel, colon, left kidney, muscle, bone and tail was measured in a well counter. To assess protein binding, plasma samples were diluted with acetonitrile and centrifuged at 4000 g. Pellets of proteins and supernatants were separated and their radioactivity measured in a well counter. RadioTLC analysis of plasma were performed for the same purpose in silicagel 60 and mobile phase of acetonitrile/water (95/5). 20μL of each supernatant was analysed by HPLC-RP using a C18 column and acetonitrile/water (75/25) as mobile phase to identify plasma metabolites. Pharmacokinetic parameters (AUC, t1/2, Cmax, Cl, Vss) were calculated using non-compartmental analysis (NCA). Dynamic PET/CT images of healthy and transgenic APPSwe/PS1dE9 mice were acquired for 2.5 h after i.v. administration. […]

Series [9] can be described thus: Plasma protein binding (acetonitrile precipitation, radioTLC). Type of series: in vitro ADME, mice. The following applies: mouse plasma. As to the method:
as §2

T1 sequence (Q01727 whole entry): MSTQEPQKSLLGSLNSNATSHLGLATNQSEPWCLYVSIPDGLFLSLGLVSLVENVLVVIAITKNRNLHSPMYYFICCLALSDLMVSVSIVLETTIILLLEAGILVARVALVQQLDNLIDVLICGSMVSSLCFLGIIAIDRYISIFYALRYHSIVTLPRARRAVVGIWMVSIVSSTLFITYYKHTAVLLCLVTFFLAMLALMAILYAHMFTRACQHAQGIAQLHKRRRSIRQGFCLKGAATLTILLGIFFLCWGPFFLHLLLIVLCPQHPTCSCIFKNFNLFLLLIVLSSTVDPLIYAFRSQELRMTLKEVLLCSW
Sequence of GRP receptors (P30550 whole entry): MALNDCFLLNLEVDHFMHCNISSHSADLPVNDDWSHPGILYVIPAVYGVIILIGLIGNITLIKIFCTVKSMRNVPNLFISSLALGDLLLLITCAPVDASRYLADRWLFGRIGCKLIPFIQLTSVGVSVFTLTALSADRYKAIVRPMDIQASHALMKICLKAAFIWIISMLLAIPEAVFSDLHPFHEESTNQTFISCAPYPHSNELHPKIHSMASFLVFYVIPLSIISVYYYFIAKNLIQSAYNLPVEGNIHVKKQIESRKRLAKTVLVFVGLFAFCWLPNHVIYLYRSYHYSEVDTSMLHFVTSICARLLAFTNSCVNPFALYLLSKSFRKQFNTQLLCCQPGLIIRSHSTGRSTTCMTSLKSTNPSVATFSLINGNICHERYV
T2 sequence (A0A8I6GM68 whole entry): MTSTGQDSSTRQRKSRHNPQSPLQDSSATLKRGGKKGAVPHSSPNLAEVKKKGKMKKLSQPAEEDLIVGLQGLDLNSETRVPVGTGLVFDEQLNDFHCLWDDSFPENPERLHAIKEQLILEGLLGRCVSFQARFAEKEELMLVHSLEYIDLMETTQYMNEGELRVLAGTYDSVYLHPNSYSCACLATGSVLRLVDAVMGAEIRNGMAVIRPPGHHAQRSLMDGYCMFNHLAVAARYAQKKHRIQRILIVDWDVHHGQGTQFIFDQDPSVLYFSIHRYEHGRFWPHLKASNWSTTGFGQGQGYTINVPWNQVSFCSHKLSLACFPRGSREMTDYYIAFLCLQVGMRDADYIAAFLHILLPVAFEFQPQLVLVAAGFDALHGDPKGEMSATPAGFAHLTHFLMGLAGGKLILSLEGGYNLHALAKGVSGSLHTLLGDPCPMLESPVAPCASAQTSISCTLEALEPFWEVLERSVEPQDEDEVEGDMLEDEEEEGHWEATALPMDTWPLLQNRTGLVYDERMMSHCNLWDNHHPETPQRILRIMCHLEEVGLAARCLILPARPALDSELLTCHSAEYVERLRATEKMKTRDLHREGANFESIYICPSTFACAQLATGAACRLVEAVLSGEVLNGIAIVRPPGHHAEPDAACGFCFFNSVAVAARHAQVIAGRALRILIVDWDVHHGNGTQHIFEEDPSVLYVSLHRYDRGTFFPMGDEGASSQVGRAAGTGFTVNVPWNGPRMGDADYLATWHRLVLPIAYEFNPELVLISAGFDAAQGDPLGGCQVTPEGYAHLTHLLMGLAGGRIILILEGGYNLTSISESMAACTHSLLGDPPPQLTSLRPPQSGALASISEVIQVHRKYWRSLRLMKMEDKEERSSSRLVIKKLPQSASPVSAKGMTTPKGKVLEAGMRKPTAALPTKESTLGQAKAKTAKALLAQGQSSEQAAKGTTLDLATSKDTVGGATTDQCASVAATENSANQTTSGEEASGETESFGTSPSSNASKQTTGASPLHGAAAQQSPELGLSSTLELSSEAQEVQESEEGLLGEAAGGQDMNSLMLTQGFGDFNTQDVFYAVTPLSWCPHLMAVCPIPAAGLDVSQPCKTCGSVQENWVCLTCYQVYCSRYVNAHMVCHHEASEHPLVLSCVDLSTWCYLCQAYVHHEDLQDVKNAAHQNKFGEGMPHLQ
Procedure for AR42J and U87MG: Materials and Methods: The radiolabelling was performed using an automated system with inline quality control. Fraction of 68GaCl3 eluate from an organic matrix based 68Ge/68Ga generator, 400-700 MBq in 2 mL, was used to label NOTA/NODAGA/DOTA-derivatised cRGD peptides. Elution, labeling and purification procedures were performed in 20-25 min. […] The affinity of cyclo-RGD peptides to tumor cell-surface receptors was determined by real-time quantification using Ligand Tracer.

The term GI50 denotes the concentration that inhibits growth by half. In the case of `COc1ccc(-c2nc3cc(F)ccc3s2)cc1OC` [PMX 610, 2-(3,4-dimethoxyphenyl)-5-fluorobenzothiazole], the GI50 in series [1] was under 0.1 nM.
As a reminder, the Ki is the dissociation constant of the complex between target and ligand, obtained from inhibition or displacement. A higher Ki goes with lower affinity. Take `C[C@@](Cc1c[nH]c2ccccc12)(NC(=O)Nc1ccc([N+](=O)[O-])cc1)C(=O)NCC1(c2ccc(OCCF)cn2)CCCCC1` [PD-410, (S)-3-(1H-indol-3-yl)-N-[1-[5-(2-fluoroethoxy)pyridin-2-yl]cyclohexylmethyl]-2-methyl-2-[3-(4-nitrophenyl)ureido]propionamide]: at GRP receptors, the Ki was determined as 38 ± 2 nM.
Compound `CC(C)[C@H](NC(=O)[C@@H]1CCCN1C(=O)[C@H](CCCNC(=N)N)NC(=O)[C@@H]1CCC(=O)NCCCC[C@H](NC(=O)CCNC(=O)CCCCCNC(=O)[C@@H](N)CS)C(=O)N[C@@H](CCC(=O)O)C(=O)N[C@@H](Cc2c[nH]cn2)C(=O)N[C@H](Cc2ccccc2)C(=O)N[C@@H](CCCNC(=N)N)C(=O)N[C@@H](Cc2c[nH]c3ccccc23)C(=O)N1)C(N)=O` [NAP_NS2, H-Cys-Ahx-βAla^3-c[Lys^4-Glu-His-D-Phe-Arg-Trp-Glu^10]-Arg^11-Pro-Val-NH2] (H-C[Ahx][βAla]KEH[dF]RWERPV-NH2; lactam 4-10) displayed a Ki at MC1R of 7.1 ± 2.4 nM.
In the case of `O=C(O)CCc1ccc(O)c(CN(CCN(CC(=O)O)Cc2cc(CCC(=O)NCCCCCC(=O)NCCCC[C@H](NC(=O)N[C@@H](CCC(=O)O)C(=O)O)C(=O)O)ccc2O)CC(=O)O)c1` [68Ga-PSMA-11, Glu-CO-Lys(Ahx)-HBED-CC, metal not drawn], the urine elimination in series [2] is on record as over 70%.
Regarding `O=C(CCCCCCC(=O)Nc1ccccc1)NO` [SAHA, Suberoylanilide hydroxamic acid], the “displacement of [11C]KB631 binding, brain” value at HDAC6 [3] was found to be 73%. At HDAC6 [4] (LNCaP tumor slices), the “displacement of [11C]KB631 binding, LNCaP” value was found to be 59%. Moreover, on HDAC6 [4] (PC3 tumor slices), the “displacement of [11C]KB631 binding, PC3” value is reported as 39%.
Turning to `N=C(N)NCCC[C@@H]1NC(=O)[C@H](CCCCNC(=O)CCC(C(=O)O)N2CCN(CC(=O)O)CCN(CC(=O)O)CC2)NC(=O)[C@@H](Cc2ccccc2)NC(=O)[C@H](CC(=O)O)NC(=O)CNC1=O` (stereo partly drawn) [[68Ga]NODAGA-RGD, metal not drawn], the tissue to tissue ratio at […] in series [5] (tumour and kidneys, read-out: tumor/kidneys ratio) came out at 1.6; in series [5] (tumour and muscle, read-out: tumor/muscle ratio), 5. Also, in series [6] (9 patients with HCC), the “side effects in clinical study” value is “no severe side effects were observed”. Further, in series [6] (human, in vivo), the calculated effective dose was 21.5±5.4 μSv/MBq. Further, in series [6] (patient blood (30, 60 min p.i.) and urine (60 min p.i.), HPLC), the metabolic stability entry is recorded as “High metabolic stability”. The “tolerability in single dose toxicity study” value in series [7] is on record as “well tolerated in animals”.
With “DOTA-E-[c(RGDfK)2] (head to tail) [68Ga-DOTA-E-[c(RGDfK)2], 68Ga-labelled dimeric cyclo-RGD peptide]”, the tumor uptake entry in the series with U87MG tumor was “Up to 5.3 % ID/g”. In the series with AR42J and U87MG, the “retention, from activity in the cells” value is “up to 58%”.
As for `COc1ccc2cc(CCC[18F])ccc2c1` [[18F]Amylovis®, [^18F]-2-(3-fluoropropyl)-6-methoxynaphtalene], the “Plasma T1/2” value in [8] (Balb/C mice, i.v., non-compartmental analysis) stood at 37 min. For the same compound, the “blood brain barrier crossing” value in series [8] (mice) is on record as “crossed blood brain barrier”. In addition, in series [9], the protein binding entry is listed as “No significant protein binding”.
